Assay results: PubChem BioAssay AID328 (DTP/NCI, 2004)
Values joined by “and” are separate entries in the source; they are usually repeats but may differ in a detail not shown here. Equal entries are not always repeated. Inconclusive results and toxic doses are left out.

System: BDF1 mice, P388 leukemia ip, median survival T/C
Experiment: NCI In Vivo Anticancer Drug Screen. Data for tumor model P388 Leukemia (intraperitoneal) in B6D2F1 (BDF1) mice
Settings: endpoint: median survival time, higher = longer survival
How it was run: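 Reported as T/C, where T is the survival measurement in dosed animals and C the same measurement in vehicle controls.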

[1] = dose: 25.0 mg/kg/injection, schedule: Q01DX009 (ip), vehicle: saline
[2] = dose: 100.0 mg/kg/injection, schedule: Q01DX009 (ip), vehicle: saline
[3] = dose: 200.0 mg/kg/injection, schedule: Q01DX009 (ip), vehicle: saline
[4] = dose: 400.0 mg/kg/injection, schedule: Q01DX009 (ip), vehicle: saline
[5] = dose: 100.0 mg/kg/injection, schedule: Q04DX003 (ip), vehicle: Klucel (hydroxypropylcellulose) (HPC)
[6] = dose: 200.0 mg/kg/injection, schedule: Q04DX003 (ip), vehicle: Klucel (hydroxypropylcellulose) (HPC)
[7] = dose: 50.0 mg/kg/injection, schedule: Q01DX009 (ip), vehicle: saline with Tween-80
[8] = dose: 100.0 mg/kg/injection, schedule: Q01DX009 (ip), vehicle: saline with Tween-80
[9] = dose: 200.0 mg/kg/injection, schedule: Q01DX009 (ip), vehicle: saline with Tween-80

**Q.** How did the T/C (dose: 4.0 mg/kg/injection, schedule: Q01DX009 (ip), vehicle: saline) turn out when CCOC(=O)c1cnc2c(OC)cccc2c1Cl was run?
**A.** 86 % of control

**Q.** And the T/C (dose: 8.0 mg/kg/injection, schedule: Q01DX009 (ip), vehicle: saline)?
**A.** 91 % of control

**Q.** And the T/C (dose: 16.0 mg/kg/injection, schedule: Q01DX009 (ip), vehicle: saline)?
**A.** 106 % of control

**Q.** What about the T/C [1] of the same compound?
**A.** 120 % of control

**Q.** And the T/C (dose: 50.0 mg/kg/injection, schedule: Q01DX009 (ip), vehicle: saline)?
**A.** 113 % of control

**Q.** What about the T/C (dose: 50.0 mg/kg/injection, schedule: Q04DX003 (ip), vehicle: saline) of the same compound?
**A.** 96 % of control

**Q.** And the T/C [2]?
**A.** 111 % of control

**Q.** And the T/C (dose: 100.0 mg/kg/injection, schedule: Q04DX003 (ip), vehicle: saline)?
**A.** 96 % of control

**Q.** And the T/C [3]?
**A.** 113 % of control

**Q.** And the T/C (dose: 200.0 mg/kg/injection, schedule: Q04DX003 (ip), vehicle: saline)?
**A.** 97 % of control

**Q.** What about the T/C [4] of the same compound?
**A.** 113 % of control

**Q.** What about the T/C (dose: 400.0 mg/kg/injection, schedule: Q04DX003 (ip), vehicle: saline) of the same compound?
**A.** 90 % of control

**Q.** For NNC(=O)C(O)C(O)C(=O)NN (centres undefined), which T/C (dose: 60.0 mg/kg/injection, schedule: Q01DX009 (ip), vehicle: saline) is on record?
**A.** 96 % of control

**Q.** And the T/C (dose: 120.0 mg/kg/injection, schedule: Q01DX009 (ip), vehicle: saline)?
**A.** 93 % of control

**Q.** With C=C(C)C(=O)O[C@H]1[C@H]2[C@H](OC(=O)[C@H]2C)[C@H](O)[C@@H](C)[C@@H]2C=CC(=O)[C@]21C as the compound, how does the T/C (dose: 3.13 mg/kg/injection, schedule: Q01DX009 (ip), vehicle: saline) read?
**A.** 102 % of control

**Q.** What about the T/C (dose: 6.25 mg/kg/injection, schedule: Q01DX009 (ip), vehicle: saline) of the same compound?
**A.** 110 % of control

**Q.** What about the T/C [1] of the same compound?
**A.** 161 % of control

**Q.** What does the source list for C=CC[n+]1ccccc1C(c1ccccc1)c1ccccc1?
**A.** T/C (dose: 6.25 mg/kg/injection, schedule: Q01DX009 (ip), vehicle: saline with Tween-80): 116 % of control; T/C (dose: 12.5 mg/kg/injection, schedule: Q01DX009 (ip), vehicle: saline with Tween-80): 120 % of control; T/C (dose: 12.5 mg/kg/injection, schedule: Q04DX003 (ip), vehicle: saline with Tween-80): 91 % of control

**Q.** What does the source list for CCN1C(=O)CC(=O)N(CC)C1=S?
**A.** T/C (dose: 50.0 mg/kg/injection, schedule: Q01DX009 (ip), vehicle: Klucel (hydroxypropylcellulose) (HPC)): 95 % of control; T/C (dose: 100.0 mg/kg/injection, schedule: Q01DX009 (ip), vehicle: Klucel (hydroxypropylcellulose) (HPC)): 91 % of control; T/C [5]: 96 % of control; T/C (dose: 200.0 mg/kg/injection, schedule: Q01DX009 (ip), vehicle: Klucel (hydroxypropylcellulose) (HPC)): 104 % of control; T/C [6]: 92 % of control

**Q.** With Nc1nc(=S)c2ncn(C3OC(CO)CC3O)c2[nH]1 (centres undefined) as the compound, how does the T/C [2] read?
**A.** 95 % of control

**Q.** C#CC1(O)CC[C@H]2[C@@H]3CCC4=CCCC[C@@H]4[C@H]3CC[C@@]21C (some centres undefined) was tested. Which T/C [2] did it give?
**A.** 95 % of control

**Q.** And the T/C (dose: 100.0 mg/kg/injection, schedule: Q04DX003 (ip), vehicle: alcohol)?
**A.** 100 % of control

**Q.** And the T/C [3]?
**A.** 90 % of control

**Q.** What about the T/C (dose: 200.0 mg/kg/injection, schedule: Q04DX003 (ip), vehicle: alcohol) of the same compound?
**A.** 95 % of control

**Q.** What about the T/C [4] of the same compound?
**A.** 86 % of control

**Q.** What about the T/C (dose: 400.0 mg/kg/injection, schedule: Q04DX003 (ip), vehicle: alcohol) of the same compound?
**A.** 105 % of control

**Q.** What does the source list for c1ccc(CNc2ncnc3[nH]ncc23)cc1?
**A.** T/C (dose: 8.0 mg/kg/injection, schedule: Q01DX010 (ip), vehicle: saline): 86 % of control and 115 % of control; T/C (dose: 16.0 mg/kg/injection, schedule: Q01DX010 (ip), vehicle: saline): 86 % of control and 100 % of control; T/C (dose: 32.0 mg/kg/injection, schedule: Q01DX010 (ip), vehicle: saline): 95 % of control and 100 % of control; T/C (dose: 64.0 mg/kg/injection, schedule: Q01DX010 (ip), vehicle: saline): 100 % of control

**Q.** Which results are given for C/C=C/C1CC(OC)=CC(=O)O1 (centres undefined)?
**A.** T/C (dose: 100.0 mg/kg/injection, schedule: Q04DX003 (ip), vehicle: saline with Tween-80): 106 % of control; T/C (dose: 200.0 mg/kg/injection, schedule: Q04DX003 (ip), vehicle: saline with Tween-80): 92 % of control; T/C (dose: 400.0 mg/kg/injection, schedule: Q04DX003 (ip), vehicle: saline with Tween-80): 97 % of control

**Q.** Which T/C (dose: 100.0 mg/kg/injection, schedule: Q01DX001 (ip), vehicle: Klucel (hydroxypropylcellulose) (HPC)) does the source give for CC(=O)c1ccccc1Br here?
**A.** 95 % of control

**Q.** And the T/C [5]?
**A.** 95 % of control

**Q.** And the T/C (dose: 200.0 mg/kg/injection, schedule: Q01DX001 (ip), vehicle: Klucel (hydroxypropylcellulose) (HPC))?
**A.** 108 % of control

**Q.** What about the T/C [6] of the same compound?
**A.** 100 % of control

**Q.** And the T/C (dose: 400.0 mg/kg/injection, schedule: Q01DX001 (ip), vehicle: Klucel (hydroxypropylcellulose) (HPC))?
**A.** 100 % of control

**Q.** What about the T/C (dose: 400.0 mg/kg/injection, schedule: Q04DX003 (ip), vehicle: Klucel (hydroxypropylcellulose) (HPC)) of the same compound?
**A.** 100 % of control

**Q.** Which results are given for CCc1nnc2c3cc4ccccc4n3cnn12?
**A.** T/C [7]: 86 % of control; T/C [8]: 87 % of control; T/C [9]: 103 % of control

**Q.** How did the T/C (dose: 10.0 mg/kg/injection, schedule: Q01DX010 (ip), vehicle: saline) turn out when C/C=C1/C[C@@H](C)[C@@](C)(O)C(=O)OCC2=CC[N+]3([O-])CC[C@@H](OC1=O)[C@@H]23 (some centres undefined) was run?
**A.** 109 % of control

**Q.** What about the T/C (dose: 20.0 mg/kg/injection, schedule: Q01DX010 (ip), vehicle: saline) of the same compound?
**A.** 104 % of control

**Q.** What about the T/C (dose: 40.0 mg/kg/injection, schedule: Q01DX010 (ip), vehicle: saline) of the same compound?
**A.** 113 % of control

**Q.** What about the T/C (dose: 80.0 mg/kg/injection, schedule: Q01DX010 (ip), vehicle: saline) of the same compound?
**A.** 109 % of control

**Q.** Which results are given for II?
**A.** T/C (dose: 12.0 mg/kg/injection, schedule: Q01DX010 (ip), vehicle: acetone): 114 % of control; T/C (dose: 25.0 mg/kg/injection, schedule: Q01DX010 (ip), vehicle: acetone): 96 % of control; T/C (dose: 50.0 mg/kg/injection, schedule: Q01DX010 (ip), vehicle: acetone): 110 % of control

**Q.** With O=C(Nc1ccccc1)c1c(-c2ccccc2)oc2ccccc2c1=O as the compound, how does the T/C (dose: 50.0 mg/kg/injection, schedule: Q04DX002 (ip), vehicle: saline with Tween-80) read?
**A.** 95 % of control

**Q.** What about the T/C (dose: 100.0 mg/kg/injection, schedule: Q04DX002 (ip), vehicle: saline with Tween-80) of the same compound?
**A.** 115 % of control

**Q.** What about the T/C (dose: 200.0 mg/kg/injection, schedule: Q04DX002 (ip), vehicle: saline with Tween-80) of the same compound?
**A.** 100 % of control

**Q.** Which results are given for O=C(NO)c1ccccn1?
**A.** T/C (dose: 130.0 mg/kg/injection, schedule: Q01DX010 (ip), vehicle: water): 109 % of control; T/C (dose: 200.0 mg/kg/injection, schedule: Q01DX010 (ip), vehicle: water): 100 % of control

**Q.** CC(=O)N1CCCCCC1=O was tested. Which T/C [7] did it give?
**A.** 104 % of control

**Q.** And the T/C [8]?
**A.** 89 % of control

**Q.** What about the T/C [9] of the same compound?
**A.** 104 % of control

**Q.** And the T/C (dose: 400.0 mg/kg/injection, schedule: Q01DX009 (ip), vehicle: saline with Tween-80)?
**A.** 90 % of control
